Measured values published in patent US20020142347A1, “Biosensor” (BIOSENSOR ApS, priority 2000, published 2002).
Substitutions are numbered along the chain they refer to.

Key:
FACI-24 = molecular target: T1, FACI-24 (Bos taurus, UniProt P07107, M25C); assay: Fluorescence emission change of FACI-24 on titration with CoA and acyl-CoA esters; assay type: binding, bovine
T1 construct: made in house; host or cells: E. coli BL21(DE3)pLysS, pET3a vector
T1 sequence (P07107 2-87 M25C): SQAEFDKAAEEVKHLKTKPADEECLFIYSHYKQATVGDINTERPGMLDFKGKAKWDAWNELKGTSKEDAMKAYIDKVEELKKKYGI
Experimental: (§1) Quantitative determination of binding affinities (KD) were performed by isothermal titration micro calorimetry as previously described (Faergeman et. al., 1996; Biochemistry 35, 14118-14126). Qualitative evaluation of relative binding affinities were determined by isoelectrical focusing using the Pharmacia Fast Gel system according to the prescriptions given by the manufacture. Fluorescence emission changes induced by acyl-CoA binding to badan modified protein were determined as follows: 5 μl portions of acyl-CoAs were added from stock solutions disolved in binding buffer, (10 mM Hepes, 150 mM NaCL, 1 mM NaHPO4, pH 7.4) containing 3.4 μM Badan derivatized protein to a 1 ml 3.4 μM solution of the Badan derivatized ACBP in the same buffer. The fluorescence emission was measured on a SPEX FLOUROLOG (Industries Inc, Edison N.J., USA) with excitation at 400 nm and emission scan from 400 nm to 550 nm. The concentration of acyl-CoA in the aqueous phase was determined from the fluorescence emission sensitivities at 495 and 470 nm repectively essentially by the method described by (Grynkiewickz et. al.,1985, J. Biol. Chem. 260, 3440-3450) according to which:
(§2) Fluorescence titration emission spectra from 415 nm to 550 nm (excitation at 400 nm) were performed for CoA, C4:0-, C8:0-, C12:0-, C16:0-, and C20:0-CoA with all four mutated and badan modified proteins.
The emission maximum of FACI-24 without ligand added was 510 nm and titration with CoA, C4:0-, C8:0-, C12:0-, […], C16:0- and C20:0-CoA caused 0, 16, 34, 42, 46 and 46 nm downshift in emission maximum, respectively (results not shown). C16:0-CoA induced a 5,5 fold increase in emission at 464 nm (FIG. 10).
Titration of FACI with acyl-CoAs was done using a SPEX FLOUROLOG (Industries Inc, Edison N.J., USA) with excitation at 387 nm and emission at 460 nm, with both excitation and emission slits set to 4.5 nm. FACI (0.5-4.5 uM, as indicated) was dissolved in 1.5 ml binding buffer (10 mM HEPES 150 mM NaCl, 5 mM KCl, 1 mM Na2HPO4, pH 7.4) and titrated with a 10 μM acyl-CoA dissolved in binding buffer, with or without FACI added, as indicated. Fluorescence emission values (counts per second) measured without FACI added to the ligand stock solution were corrected for titrand dilution.

FACI53 [1] = molecular target: T2, FACI53 (Bos taurus, UniProt P07107, A54C); assay: Fluorescence emission change of FACI-53 on titration with CoA and acyl-CoA esters; assay type: binding, bovine
T2 construct: badan (6-bromoacetyl-2-dimethylaminonaphthalene) fluorophore on the introduced Cys-53; made in house; host or cells: E. coli BL21(DE3)pLysS, pET3a vector
T2 sequence (P07107 2-87 A54C): T1 sequence (P07107 2-87 M25C) with C24M, A53C
Experimental: as §1, §2
Titration of FACI-53 dissolved in binding buffer with the above mentioned acyl-CoA esters produced a smooth downward shift in fluorescence emission maximum from 525 nm when no ligand was present to 508, 503, 490, 492, 496 and 514 with increasing concentrations of CoA, C4:0-, C8:0-, C12:0-, C16:0- and C20:0-CoA respectively.

FACI53 [2] = molecular target: T2, FACI53; assay: Isoelectrical focusing of acyl-CoA binding to FACI53; set-up: species or system bovine; conditions: ligand in four-fold molar excess over protein
Experimental: All the gels were prepared with ligands (1-7) in four-fold molar excess over protein. […] The protein-ligand complex shifted to a pl around 3.8. Legend: 1: Water, 2: CoA-SH, 3: C4-CoA, 4: C8-CoA, 5: C12-CoA, 6: C16-CoA, 7: C20-CoA, 8: Broad pl Calibration Kit (pH 3-10).
as §1, with “The concentration of acyl-CoA in the aqueous phase was determined from the fluorescence emission sensitivities at 495 and 470 nm repectively essentially by the method described by (Grynkiewickz et. al.,1985, J. Biol. Chem. 260, 3440-3450) according to which:” left out

FACI53 [3] = molecular target: T2, FACI53; assay: Isothermal titration calorimetry of acyl-CoA binding to FACI53; set-up: species or system bovine
Experimental: Reference is made to FIG. 2. and FIG. 3. which depict the emission spectra of FACI24 and FACI53 titrated with increasing concentrations of CoA, C4-, C8-, C12-, C16- and C20-CoA esters. The addition of ligand and measurement of emission of FACI24 and FACI53 was performed as described in example 2. The increased addition of ligand to the mutated and modified proteins caused a proportional spectral change. The normal physiological binding profile was confirmed by direct binding studies using isoelectrical focusing as predicted in FIG. 4. […] The results clearly indicate that fluorescence emission at 470 nm may provide a measure for the concentration of free unbound long-chain(>C12)-acyl-CoA ester.
Quantitative determination of binding affinities (KD) were performed by isothermal titration micro calorimetry as previously described (Faergeman et. al., 1996; Biochemistry 35, 14118-14126). Qualitative evaluation of relative binding affinities were determined by isoelectrical focusing using the Pharmacia Fast Gel system according to the prescriptions given by the manufacture. […] The fluorescence emission was measured on a SPEX FLOUROLOG (Industries Inc, Edison N.J., USA) with excitation at 400 nm and emission scan from 400 nm to 550 nm. […]

native bovine ACBP = molecular target: T3, native bovine ACBP (Bos taurus, UniProt P07107); conditions: isothermal titration microcalorimetry, >0.1 M salt; literature; read-out: KD for binding to native bovine ACBP; cited from earlier work
T3 sequence (P07107 1-87): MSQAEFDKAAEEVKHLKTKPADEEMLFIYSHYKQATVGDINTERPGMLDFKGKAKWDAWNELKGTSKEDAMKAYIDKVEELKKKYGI

With `CCCCCCCCCCCCCCCC(=O)SCCNC(=O)CCNC(=O)[C@H](O)C(C)(C)COP(=O)(O)OP(=O)(O)OC[C@H]1O[C@@H](n2cnc3c(N)ncnc32)[C@H](O)[C@@H]1OP(=O)(O)O` [C16:0-CoA, palmitoyl-CoA] the “Fold increase in emission of FACI-24 at 464 nm” value (FACI-24; emission at 464 nm) was 5,5 fold, the “Downshift in emission maximum of FACI-24” value (FACI-24; emission maximum without ligand 510 nm, excitation 400 nm) was 46 nm and the “Magnitude of emission of FACI-53, fold increase” value (FACI53 [1]) was 1.3 fold. For the same molecule, the “Fluorescence emission maximum of FACI-53 with ligand” value (FACI53 [1]; 525 nm when no ligand present, excitation 400 nm) was 496 nm, the “Relative emission of FACI-53 at 495 nm, fold increase” value (FACI53 [1]; emission at 495 nm) was 2.2 fold and the “Binding to FACI53 by isoelectrical focusing” value (FACI53 [2]) was “shown to bind”. For the same molecule, the “Binding to FACI53 by isothermal titration calorimetry” value (FACI53 [3]) was “binding was confirmed” and the Kd (native bovine ACBP) was 2 nM.
